In patent US5296597A, “Amide derivatives of Partricin A & Partricin B” (SPA Societa' Prodotti Antibiotici S.P.A., priority 1989, dated 1994):
≈ marks a conversion by molar mass, not a printed value. Where two headings read alike, the source gives them in different places.

Columns and labels:
[1] = system: rat erythrocytes; assay: hemolytic power on rat erythrocytes; assay type: cell-based; conditions: for hemolytic activity, times less than unreacted partricins: relative to unreacted partricins; for EC (concentration that causes hemoglobin liberation of 50% of the total amount): rat erythrocytes, 2% suspension in BSA Ringer, 1 hour at 36, average of 2-5 experiments
Experimental: A further important evaluation parameter was the helomytic power: rat erytrocytes were suspended at a 2% concentration in Ringer solution containing 0.2% of bovine serum albumin, fraction V (BSA) and incubated for 1 hour at 36° C. in the presence of various amounts of the amides being investigated.

[2] = system: Candida albicans; assay: antimycotic activity, minimum inhibitory concentration (MIC) on Candida albicans, liquid and solid medium; assay type: cell-based; conditions: candida albicans n. 37, 24 hours, average of 2-5 experiments
Experimental: (b) Sabouraud fluid medium, 24 hours at
(c) Sabouraud fluid medium + agar, 24 hours at […]

[3] = system: Saccharomyces cerevisiae; assay: growth inhibition of Saccharomyces cerevisiae culture (turbidimetric); assay type: cell-based; conditions: S. cerevisiae n. 167; PYG culture medium, 6 hours at 36; average of 2-5 experiments
[4] = system: Trichomonas vaginalis; assay: antiprotozoal activity, MIC on Trichomonas vaginalis; assay type: cell-based; conditions: T. vaginalis n. 6; CPLM culture medium, 72 hours; average of 2-5 experiments
[5] = background statement, in words; cited from earlier work
[6] = background statement, in words; cited from earlier work; remark: listed apart in the source
[7] = system: yeasts, such as Candida albicans; conditions: background statement, in words; cited from earlier work
[8] = water solubility and pH; assay type: physicochemical
[9] = Sabouraud fluid medium + agar (solid)

| Molecule | MIC [2, 9] [ng/mL] | MIC ([2]; Sabouraud fluid medium) [ng/mL] | IC50 [3] [ng/mL] | MIC [4] [ng/mL] | EC (concentration that causes hemoglobin liberation of 50% of the total amount) [1] [µg/mL] | further results |
| --- | --- | --- | --- | --- | --- | --- |
| 2-dimethylaminoethyl amide | – | – | – | – | – | hemolytic activity, times less than unreacted partricins [1]: 25-80 times less |
| 3-dimethylaminopropyl amide | – | – | – | – | – | hemolytic activity, times less than unreacted partricins [1]: 25-80 times less |
| CC1/C=C/C=C/C=C/C=C/C=C/C=C/C=C/C(O[C@H]2O[C@@H](C)[C@H](O)[C@@H](N)[C@H]2O)CC2OC(O)(CC(O)CC(O)CC(O)CC(O)CC(=O)CC(O)CC(=O)OC1C(C)CCC(O)CC(=O)c1ccc(N)cc1)CC(O)C2C(=O)O (stereo partly drawn) [Partricin B (P.B), reference compound] | 40 | 40 (≈ 0.0359 µM) | 5 (≈ 0.00449 µM) | 250 (≈ 0.225 µM) | – | – |
| COC(=O)C1C(O)CC2(O)CC(O)CC(O)C(O)CCC(O)CC(O)CC(=O)OC(C)C(C)C(O)C(C)C=CC=CC=CC=CC=CC=CC=CC(OC3OC(C)C(O)C(N)C3O)CC1O2 (stereo not drawn) [amphotericin B methyl ester] | – | – | – | – | – | toxicity [5]: severe neurotoxic effects |
| Partricin 3-dimethylaminopropyl amide [P. 3-dimethyl-aminopropyl amide] | 16 | 10 | 1 | 500 | 17 | – |
| Partricin A 3-dimethylaminopropyl amide [P.A 3-dimethyl-aminopropyl amide] | 8 | 3 | 0.5 | 500 | 20 | – |
| Partricin A N'-methyl-piperazide [P.A N'-methyl-piperazide] | 4 | 1 | 0.4 | 500 | – | – |
| Partricin A allyl amide [P.A allyl amide] | 10 | 6 | 0.8 | 250 | – | – |
| Partricin A ethyl amide [P.A ethyl amide] | 10 | 9 | 1 | 500 | – | – |
| Partricin A n-pentyl amide [P.A n-penthyl amide] | 80 | 20 | 3 | 2000 | – | – |
| Partricin A n-propyl amide [P.A n-propyl amide] | 16 | 8 | 1 | 500 | – | – |
| Partricin B 2-dimethylaminoethyl amide [P.B 2-dimethyl-aminoethyl-amide] | 10 | 3 | 1 | 500 | – | – |
| Partricin B methyl amide [P.B methyl amide] | 8 | 7 | 1 | 250 | – | – |
| Partricin methyl amide [P. methy amide] | 7 | 5 | 1 | 250 | 7.5 | – |
| Partricin n-dodecyl amide [P. n-dodecyl amide] | 800 | 450 | 50 | > 10000 | > 32 | – |
| mepartricin | – | – | – | – | – | water solubility [6]: insufficient water solubility; action selectivity [5]: greater action selectivity; toxicity [5]: reduced toxicity, but still exhibits marked toxic effects; antimycotic activity [7]: increased antimycotic activity |
| methyl amide | – | – | – | – | – | hemolytic activity, times less than unreacted partricins [1]: 25-80 times less |
| partricin A 2-dimethylaminoethyl amide diaspartate | – | – | – | – | – | water solubility ([8]; in words): water-soluble; pH (reaction of the salt) ([8]; slightly acidic reaction): ~5 |
| partricin A 2-dimethylaminoethylamide [P.A 2-dimethyl-aminoethyl amide] | 8 | 2 | 0.4 | 500 | 25 | – |
| partricin A methyl amide [P.A methyl amide] | 8 | 5 | 0.7 | 250 | 8 | – |
